Experimental data from ChEMBL document CHEMBL1201862, “PubChem BioAssay data set” (2004).
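Protocol summary: plate cells (96-well), add compound at 5 concentrations, incubate 48 h, interpolate endpoints linearly. At the GI50, growth is halved.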 The source made the active and inactive calls. Cut-off read from the data, not from the text of the source: active = GI50 up to about 1.1 µM and inactive = higher.

Assays:
Experiment in all cases: growth of human tumour cells (NCI), 48 h
XF498 = test system: XF498
DLD-1 = test system: DLD-1
HOP-18 = test system: HOP-18
LXFL 529 = test system: LXFL 529
MDA-N = test system: MDA-N
786-0 = test system: 786-0
MDA-MB-231 = test system: MDA-MB-231
BT-549 = test system: BT-549
RXF 631 = test system: RXF 631

Row | Compound | GI50 (DLD-1) | GI50 (HOP-18) | GI50 (LXFL 529) | GI50 (MDA-N) | GI50 (786-0) | GI50 (MDA-MB-231) | GI50 (BT-549) | further results
1 | CCN(CC)C(=O)c1cc(OC(C)C)ccc1-c1c(C)cc(OC(C)C)c(OC)c1OC | 40.3 µM (inactive) | – | – | – | – | – | – | GI50 (XF498): 25.8 µM (inactive)
2 | CC(C)(C)C(=O)OCC1C(=O)OCC1C(=O)N1Cc2cc3ccccc3nc2C1 (stereo not drawn) | 1.55 µM (inactive) | 2.61 µM (inactive) | 1.47 µM (inactive) | 3.83 µM (inactive) | 2.5 µM (inactive) | 4.62 µM (inactive) | 3.14 µM (inactive) | –
3 | O=C1CCC(c2ccccc2)=NN1c1nsc2ccccc12 | – | 19.6 µM (inactive) | > 100 µM (inactive) | – | – | – | – | –
4 | Cc1ccc(CCC(=O)C(=O)O)s1 | – | > 100 µM (inactive) | > 100 µM (inactive) | – | – | – | – | GI50 (XF498): > 100 µM (inactive); GI50 (RXF 631): > 100 µM (inactive)
5 | CCCS(=O)(=O)O | – | – | – | – | – | > 100 µM (inactive) | > 100 µM (inactive) | –
6 | Clc1ccc(-c2nnc(-c3nsc4ccccc34)o2)cc1 | – | – | 71 µM (inactive) | – | – | – | – | –
7 | CC(=O)[C@H]1CCC2[C@@H]3CC=C4C(O)C(OS(=O)(=O)O)CC[C@]4(C)C3CC[C@@]21C (stereo partly drawn) | > 100 µM (inactive) | > 100 µM (inactive) | – | – | – | – | – | –
8 | NC1CCCCC1 | 200 µM (inactive) | < 0.0562 µM (active) | – | – | – | – | – | –
9 | COc1cc2ccc(CC(N)=O)cc2cc1OC | – | > 100 µM (inactive) | > 100 µM (inactive) | – | > 100 µM (inactive) | – | – | GI50 (XF498): > 100 µM (inactive); GI50 (RXF 631): > 100 µM (inactive)
10 | O=C(NC1C/C(=N/O)c2c(Br)sc(Br)c21)C(F)(F)F (stereo not drawn) | – | – | – | 32.3 µM (inactive) | 18.2 µM (inactive) | 13.1 µM (inactive) | 32.1 µM (inactive) | –
11 | O=C1CN2C(Cl)(Cl)C2(c2ccccc2)c2cc(Cl)ccc2N1CC1CC1 (stereo not drawn) | 16.9 µM (inactive) | 23.8 µM (inactive) | 42.4 µM (inactive) | – | – | – | – | –
12 | CC(SC(=S)N1CCOCC1)C(=O)Nc1nnc(-c2ccc(Cl)cc2)o1 (stereo not drawn) | – | – | – | – | 27.9 µM (inactive) | 51.5 µM (inactive) | > 100 µM (inactive) | –
13 | Cc1nnc(Nc2ccc(Cl)cc2)o1 | – | – | – | > 10 µM (inactive) | > 10 µM (inactive) | > 10 µM (inactive) | – | –
14 | C=CC(=O)NC(O)(C(=O)OCC)C(F)(F)F (stereo not drawn) | – | – | – | > 100 µM (inactive) | – | > 100 µM (inactive) | > 100 µM (inactive) | –
15 | O=c1ccc2cc3ccc4cccc5ccc(c2o1)c3c45 | > 100 µM (inactive) | 5.7 µM (inactive) | 45 µM (inactive) | – | – | – | – | GI50 (XF498): 12 µM (inactive); GI50 (RXF 631): 80 µM (inactive)
16 | CO[C@H]1C=C[C@@]23c4cc5c(cc4CO[C@]2(O)CN(C)[C@H]3C1)OCO5 | – | – | – | > 100 µM (inactive) | > 100 µM (inactive) | > 100 µM (inactive) | > 100 µM (inactive) | –
17 | NC(Cc1c[nH]c2ccccc12)C(=O)O (stereo not drawn) [DL-TRYPTOPHAN] | > 300 µM (inactive) | 54.1 µM (inactive) | – | – | – | – | – | –
18 | COc1cc([C@@H]2c3cc4c(cc3[C@@H](c3c(O)cc(O)c5c3O[C@H](c3ccc(O)c(O)c3)[C@@H](O)C5)[C@H]3COC(=O)[C@H]23)OCO4)cc(OC)c1O | – | – | – | 34.7 µM (inactive) | > 100 µM (inactive) | > 100 µM (inactive) | > 100 µM (inactive) | –
19 | Cc1ccc(NC(=S)NNC(=O)c2cc(-c3ccccc3)nc3ccccc23)cc1C | – | – | – | 17.2 µM (inactive) | 16.3 µM (inactive) | 20.3 µM (inactive) | 18.7 µM (inactive) | –
20 | CC(C)OP(=O)(OC(C)C)c1nn(-c2ccc([N+](=O)[O-])cc2)c(=N)s1 | > 100 µM (inactive) | – | – | – | – | – | – | GI50 (XF498): 89.5 µM (inactive)
21 | CC1[C@@H]2CC=C3C4CCC5Cc6nc7c(nc6C[C@@]5(C)C4CC(=O)[C@]32CO[C@@]1(O)C(O)CC(C)(C)O)CC1CCC2C3=C[C@H]4O[C@@]5(O[C@@](C)(CO)C[C@@H]5O)C(C)[C@@]4(O)[C@]3(C)[C@@H](O)CC2[C@]1(C)C7 (stereo partly drawn) | 0.111 µM (active) | 0.269 µM (active) | – | – | – | – | – | GI50 (XF498): 0.00242 µM (active)
22 | O=C1C=CC=C/C1=C1/SC(c2ccccc2)=C(O)N1c1ccccc1 | – | – | > 100 µM (inactive) | – | > 100 µM (inactive) | – | – | –
23 | Cc1cc2c(ccc[n+]2[O-])[n+]([O-])c1 | > 100 µM (inactive) | – | > 100 µM (inactive) | – | – | – | – | GI50 (XF498): > 100 µM (inactive)
24 | CC1C(=O)N(c2ccccc2)NC12CCCc1ccccc12 (stereo not drawn) | – | – | – | > 100 µM (inactive) | – | > 100 µM (inactive) | > 100 µM (inactive) | –
25 | COc1ccc(C2N(NC(=O)c3ccncc3)C(=O)CS2(=O)=O)cc1F (stereo not drawn) | > 100 µM (inactive) | > 100 µM (inactive) | > 100 µM (inactive) | – | – | – | – | GI50 (XF498): > 100 µM (inactive); GI50 (RXF 631): > 100 µM (inactive)
26 | COC1OC(CS(=O)(=O)O)C(O)C(O)C1O (stereo not drawn) | – | – | – | > 100 µM (inactive) | – | – | > 100 µM (inactive) | –
27 | C/C(=C1\N=C(c2ccccc2)OC1=O)c1ccccc1 | – | – | – | – | – | – | 0.61 µM (active) | –
